Results from patent publication US20260151399A1, “COMBINATIONS OF LSD1 INHIBITORS AND MENIN INHIBITORS FOR TREATING CANCER” (ORYZON GENOMICS, S.A., priority 2022, published 2026).

Legend:
Assay in all cases: Single agent viability assay (96 hours, alamarBlue)
Type in all cases: cell-based
MOLM-13 = conditions: for EC50: Homo sapiens, MOLM-13, mean, 96 hours incubation, N=2; for EC50 (range in words) / reduction of viability (compared to vehicle controls): MOLM-13, 96 hours
Experimental: (§1) Mycoplasma-free AML cell lines were maintained in RPMI 10% FBS medium at 37° C. in a humidified incubator with controlled 5% CO2 atmosphere. Cell freezing and thawing was performed following recommendation from ATCC. Genetic profiling of the cell lines used is available in Table 1.
(§2) Cells were seeded in 96-well plates at the optimal density to guarantee linear growth throughout the assay (8000 cells/well for MV(4;11), 4000 cells/well for MOLM-13 and OCI-AML3) in 50 μL of medium. Each experimental condition was tested in technical triplicates, including medium-only and vehicle-treated controls for background correction and normalization, respectively. After seeding, 50 μL of medium containing 9 serial dilutions of 2×-concentrated compound were added to the cells to obtain 100 μL of cells with 1×-concentrated compound at each dilution (DMSO %<0.5%). Cells were then incubated for 96 hours at 37° C. in a controlled 5% CO2 atmosphere, prior to evaluation of cell viability using alamarBlue™ cell viability reagent (ThermoFisher Scientific, Waltham, MA/USA). AlamarBlue™ is a cell viability indicator that uses the natural reducing power of living cells to convert resazurin to the fluorescent molecule resorufin. Briefly, alamarBlue™ stock solution was diluted 1:20 in the culture medium and after 3 hours incubation fluorescence was measured using a TECAN Infinity 2000 plate reader (Tecan Group Ltd., Mannedorf, CH; 540-570 nm excitation wavelength, 580-610 nm emission wavelength). For each condition, the average fluorescence was calculated from the 3 technical replicates; background correction was calculated from the fluorescence of medium-only controls. Data were analyzed using the GraphPad PRISM® version 9.0.1 (GraphPad Software, Inc., La Jolla, CA/USA) to calculate the best-fitting curves and the EC50 values.

MV(4;11) = conditions: for EC50: Homo sapiens, MV4-11, mean, 96 hours incubation, N=2; for EC50 (range in words) / reduction of viability (compared to vehicle controls): MV(4;11), 96 hours
Experimental: as §1, §2

OCI-AML3 = conditions: for EC50: Homo sapiens, OCI-AML-3, mean, 96 hours incubation, N=2
Experimental: as §1, §2

| Compound | EC50 (MOLM-13) | EC50 (range in words) (MOLM-13) | EC50 (OCI-AML3) | EC50 (range in words) (OCI-AML3; OCI-AML3, 96 hours) | reduction of viability (compared to vehicle controls) (MOLM-13) | EC50 (MV(4;11)) | EC50 (range in words) (MV(4;11)) | reduction of viability (compared to vehicle controls) (MV(4;11)) | reduction of viability (compared to vehicle controls) (OCI-AML3; OCI-AML3, 96 hours) |
| --- | --- | --- | --- | --- | --- | --- | --- | --- | --- |
| N#Cc1cc2cc(CN3CCC(Nc4ncnc5sc(CC(F)(F)F)cc45)CC3)ccc2[nH]1 [MI-136, 5-[[4-[[6-(2,2,2-trifluoroethyl)thieno[2,3-d]pyrimidin-4-yl]amino]piperidin-1-yl]methyl]-1H-indole-2-carbonitrile] | 1840 nM | less potent than SNDX-5613 | – | – | 100% | 593 nM | less potent than SNDX-5613 | 100% | – |
| CC(C)(C)OC(=O)N[C@@H]1CCCN(Cc2ccnc(C(=O)Nc3ccc(-c4cc5c(N6CCOCC6)ncnc5[nH]4)cc3)c2)C1 [Menin-MLL inhibitor 20, tert-butyl N-[(3R)-1-[[2-[[4-(4-morpholin-4-yl-7H-pyrrolo[2,3-d]pyrimidin-6-yl)phenyl]carbamoyl]pyridin-4-yl]methyl]piperidin-3-yl]carbamate] | 714 nM | less potent than SNDX-5613 | – | – | 100% | 750 nM | less potent than SNDX-5613 | 100% | – |
| CCN(C(=O)c1cc(F)ccc1Oc1cncnc1N1CC2(CCN(C[C@H]3CC[C@H](NS(=O)(=O)CC)CC3)CC2)C1)C(C)C [revumenib, 2-{[4-(7-{[trans-4-(ethanesulfonamido)cyclohexyl]methyl}-2,7-diazaspiro[3.5]nonan-2-yl)pyrimidin-5-yl]oxy}-N-ethyl-5-fluoro-N-(propan-2-yl)benzamide] | 32 nM | nanomolar range | 53.2 nM | nanomolar range | around 70% | 9.58 nM | nanomolar range | ~100% | around 50% |

The next molecules have a lower EC50 (MOLM-13) than those just listed; values first:

| EC50 (MOLM-13) | EC50 (range in words) (MOLM-13) | EC50 (OCI-AML3) | EC50 (range in words) (OCI-AML3; OCI-AML3, 96 hours) | Compound | reduction of viability (compared to vehicle controls) (MOLM-13) | EC50 (MV(4;11)) | EC50 (range in words) (MV(4;11)) | reduction of viability (compared to vehicle controls) (MV(4;11)) | reduction of viability (compared to vehicle controls) (OCI-AML3; OCI-AML3, 96 hours) |
| --- | --- | --- | --- | --- | --- | --- | --- | --- | --- |
| 3.55 nM | – | 1.4 nM | – | CN1CCN(C(=O)[C@H](CCCN[C@@H]2C[C@H]2c2ccc(F)cc2)NC(=O)c2ccc(-n3ccnn3)cc2)CC1 [bomedemstat, N-[(2S)-5-{[(1R,2S)-2-(4-fluorophenyl)cyclopropyl]amino}-1-(4-methylpiperazin-1-yl)-1-oxopentan-2-yl]-4-(1H-1,2,3-triazol-1-yl)benzamide] | – | 2.9 nM | – | – | – |
| 1.15 nM | – | 0.99 nM | – | COc1ccc(-c2c(-c3ccc(C#N)c(F)c3)nc(N3CCC(N)CC3)n(C)c2=O)cc1F [pulrodemstat, 4-[2-(4-aminopiperidin-1-yl)-5-(3-fluoro-4-methoxyphenyl)-1-methyl-6-oxo-1,6-dihydropyrimidin-4-yl]-2-fluorobenzonitrile] | – | 1.1 nM | – | – | – |
| 0.2 nM | – | 0.13 nM | – | N[C@H]1CC[C@H](N[C@@H]2C[C@H]2c2ccccc2)CC1 [iadademstat, (trans)-N1-((1R,2S)-2-phenylcyclopropyl)cyclohexane-1,4-diamine] | – | 0.16 nM | – | – | – |
